Series [1] can be described thus: Example 2: change in percent bodyfat and lean body mass, perceived energy and mental outlook in subjects. In kind it is in vivo, human. As to conditions: for Change Percent Bodyfat / Change Percent Lean Body Mass: 6 mg/kg per day calculated as octopamine base; for Perceived Energy / Perceived Mental Outlook and Focus: subjective, scale of 1-10, 6 mg/kg per day. As for the experimental part: Octopamine HCl was prepared and given as capsules in divided dosages at 6 mg/kg per day calculated as octopamine base. […] Subjective results are also shown regarding perceived energy and mental outlook and focus (scale of 1-10): […]

Series [2] can be described thus: Example 1: weight loss in subjects given capsules, no change of diet or exercise. In kind it is in vivo, human. The arrangement: average weight loss: unit not given here. To be noted: 6 mg/kg per day calculated as octopamine base; for average weight loss: capsules, divided dosages. Here is the method:
Octopamine base, octopamine HCl, octopamine malate, and octopamine ethylcarbonate were prepared and given as capsules in divided dosages at 6 mg/kg per day calculated as octopamine base.

Series [3] is described as follows: Stability of octopamine forms exposed to the atmosphere (in-house results). The series is classed as physicochemical. As to conditions: normal atmospheric conditions; according to our calculations. An excerpt:
First, we have discovered that octopamine in the base form is very unstable and oxidizes rapidly when readily exposed to the atmosphere.
For instance, although the half-life of octopamine base is roughly 6 months, the half-life for octopamine salts of this invention such as octopamine HCl is at least 5 years according to our calculations. To be used commercially for metabolic enhancement, it is of extreme importance that the octopamine form used has a shelf life long enough so that the octopamine remains filly efficacious for at least one year and preferably two years.

Series [4] in a line: Metabolic potency, bioavailability and tolerability of octopamine salts versus base in users. In kind it is in vivo, human. An excerpt:
Finally, we have discovered that the base form of octopamine has significant bioavailability problems. […] There is thus great need for an improvement to this technology which allows octopamine to be a commercially viable option for metabolic enhancement.
We have found the octopamine salts of this invention are up to four times more efficient at affecting specific metabolic parameters than octopamine base.
The octopamine salts of this invention can be commercially used in various ways as metabolic enhancers. For instance, we have found usefulness with these compounds as weight loss agents. […] Even in high dosages, the user feels no noticeable negative effect on his general feeling or overall state of well-being. Furthermore, these octopamine salts specifically enhance the loss of adipose tissue while preserving lean body mass such as muscle tissue. A significant problem for anyone trying to lose unwanted adipose tissue is the concurrent loss of lean body mass. Lean body mass includes tissues such as muscle, kidney, liver, heart and bone. For a person to feel healthy and strong, these tissues must also be healthy and strong. […]
Human dosaging for the octopamine salts of this invention is most preferable in the range of 5-15 mg/kg of bodyweight calculated as base octopamine. […]

Counter-ions that a name gives are not always drawn.

In general, half-life refers to how long it takes for the measured level to halve. `NCC(O)c1ccc(O)cc1` (stereo not drawn) [Octopamine HCl]: the “Change Percent Bodyfat” value in series [1] (Week 1) was “−.5%”; in series [1] (Week 4), −2%; in series [1] (Week 8), −4%. Besides, the “Change Percent Lean Body Mass” value in series [1] (Week 1) was 0%; in series [1] (Week 4), “+.3%”; in series [1] (Week 8) it was “+1%”. Moreover, the “Perceived Energy” value in series [1] (Week 1) worked out at 6; in series [1] (Week 4), 8; in series [1] (Week 8) it was 8. The “Perceived Mental Outlook and Focus” value was 7 in series [1] (Week 1), 7 in series [1] (Week 4) and 9 in series [1] (Week 8). The average weight loss in series [2] (Week 1, HCl, 6 mg/kg/day) was 2; in series [2] (Week 4, HCl, 6 mg/kg/day), 6; in series [2] (Week 8, HCl, 6 mg/kg/day), 9. The half-life in series [3] was no less than 1830 days.
Consider `NCC(O)c1ccc(O)cc1` (stereo not drawn) [Octopamine base, Octopamine], for which, in series [4], the “minimum effective dosage relative to the octopamine salts of the invention” value was “nearly four times”. The “weight loss (result in words)” value in series [2] (up to Week 8) was “neither the octopamine base nor the control resulted in appreciable or significant weight loss”. In addition, the average weight loss was 0 in series [2] (Week 1, 6 mg/kg/day); 1 in series [2] (Week 4, 6 mg/kg/day); 2 in series [2] (Week 8, 6 mg/kg/day).
Consider Octopamine ethylcarbonate, for which the values for the average weight loss in series [2] (Week 1), in series [2] (Week 4) and in series [2] (Week 8) were 2, 6 and 10, respectively.
As to Octopamine malate, the figures for the average weight loss in series [2] (Week 1), in series [2] (Week 4) and in series [2] (Week 8) were 1, 5 and 10, respectively.

Source of the values: patent US20040204497A1, “Metabolic enhancing properties of octopamine salts” (Creative Compounds, LLC, priority 2003, published 2004).
